Data as given in PubChem BioAssay (NCI).
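Five concentrations, 48 hours, 96-well plates. Abbreviation: GI50, concentration required for 50% inhibition of growth. At the TGI there is no net growth.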

Legend:
Assay in all cases: growth of human tumour cells (NCI), 48 h
NCI-H522 lung = test system: NCI-H522 lung
HL-60(TB) leukemia = test system: HL-60(TB) leukemia
LOX IMVI melanoma = test system: LOX IMVI melanoma
RPMI-8226 leukemia = test system: RPMI-8226 leukemia
UACC-62 melanoma = test system: UACC-62 melanoma
OVCAR-5 ovarian = test system: OVCAR-5 ovarian
SW-620 colon = test system: SW-620 colon
NCI-H226 lung = test system: NCI-H226 lung

Row | Compound | GI50 (NCI-H522 lung) | TGI (NCI-H522 lung) | GI50 (HL-60(TB) leukemia) | TGI (HL-60(TB) leukemia) | GI50 (LOX IMVI melanoma) | TGI (LOX IMVI melanoma) | GI50 (RPMI-8226 leukemia) | TGI (RPMI-8226 leukemia) | GI50 (UACC-62 melanoma) | TGI (UACC-62 melanoma) | GI50 (OVCAR-5 ovarian) | TGI (OVCAR-5 ovarian) | GI50 (SW-620 colon) | TGI (SW-620 colon) | GI50 (NCI-H226 lung) | TGI (NCI-H226 lung)
1 | COc1cccc(Nc2nc3ccccc3c3occc23)c1 | 9.3 µM | 27 µM | 45 µM | > 100 µM | 2.32 µM | 8.39 µM | 15.9 µM | > 100 µM | 9.37 µM | 24.6 µM | 14.1 µM | 32.9 µM | 16.7 µM | 34.3 µM |  | 
2 | O=C1c2ccccc2-c2c1c1ccccc1c(=O)n2CCCNCCn1c2c(c3ccccc3c1=O)C(=O)c1ccccc1-2 | 14.6 µM | 48.1 µM | 34.6 µM | 96.8 µM | 0.0855 µM | 3.16 µM |  |  | 5.04 µM | 19.3 µM | 14.9 µM | 28.1 µM | 2.23 µM | > 100 µM | 4.59 µM | 20.7 µM
3 | CCN(Cc1cccc(Cl)c1)c1ccc(CO)c(Cl)c1 | 12.8 µM | 27.1 µM | 3.93 µM | 20.9 µM | 9.11 µM | 22.3 µM | 4.35 µM | 28.1 µM | 0.116 µM | 1.07 µM | 0.222 µM | 1.25 µM | 1.56 µM | 18.1 µM | 0.0905 µM | 0.236 µM
4 | O=C(c1ccc(Cl)cc1)C(O)c1ccc(Cl)cc1 (configuration not stated) |  | > 100 µM |  | 82.7 µM |  | > 100 µM |  | > 100 µM |  | > 100 µM |  | > 100 µM |  | > 100 µM |  | > 100 µM
5 | Cc1cn(Cc2ccc(C34CC5CC(CC(C5)C3)C4)c(O)c2)c(=O)[nH]c1=O | 8.04 µM | 24.2 µM | 2.73 µM | 6.53 µM | 11.3 µM | 23.3 µM | 1.79 µM | 21 µM | 7.34 µM | 20.4 µM | 16.1 µM | 29.8 µM | 8.59 µM | 20.9 µM | 15.4 µM | 29.9 µM
6 | COc1ccc(/C=C2/SC(Nc3nc(-c4nc(NC5=NC(=O)/C(=C\c6ccc(OC)cc6)S5)sc4C)c(C)s3)=NC2=O)cc1 | 2.14 µM | > 25.9 µM | 0.397 µM | > 21.9 µM | 0.935 µM | 9.27 µM | 0.572 µM | 3.21 µM | 0.32 µM | 6.62 µM | 5.18 µM | 24.5 µM | 1.31 µM | > 50 µM | 4.98 µM | 24.9 µM
7 | O=C(NCC1CCCO1)c1ccc(NC2=C(Cl)C(=O)N(Cc3ccccc3)C2=O)cc1 (configuration not stated) | 1.92 µM | 10.8 µM | 9.25 µM | 25 µM | 24.5 µM | > 100 µM | 3.36 µM | 12.7 µM | 10.8 µM | 24.3 µM | 16.6 µM | 32.8 µM | 5.95 µM | 42.8 µM | 11.8 µM | 26.7 µM
8 | Cn1c2c(c3c(Cl)nncc31)Cc1ccccc1-2 | 25.1 µM | 59.9 µM |  |  | 20.9 µM | > 100 µM | 18.1 µM | > 100 µM | 13.9 µM | 62 µM | 27.4 µM | > 100 µM | 17.9 µM | > 100 µM | 15.6 µM | 46.8 µM
9 | N#Cc1cnc(Nc2cc(NC[C@H]3CNCCO3)c(C(F)(F)F)cn2)cn1 | 13.1 µM | 34.9 µM | 2.15 µM | 15.4 µM | 7.15 µM | 24.2 µM | 15.7 µM | 56.3 µM | 5.17 µM | 25.1 µM | 9.37 µM | 67.1 µM | 18.1 µM | 73.8 µM | 22.4 µM | 85.3 µM
10 | c1ccc(CNCCN(CCNCc2ccccn2)Cc2ccc3ccccc3c2)nc1 |  |  | 2.4 µM | 5.77 µM | 2 µM | 4.5 µM | 2.67 µM | 6.65 µM | 2.17 µM | 4.7 µM | 1.63 µM | 4.03 µM | 2.36 µM | 6.32 µM | 1.77 µM | 3.53 µM
11 | O=C1O/C(=C/c2ccccc2)C(c2ccccc2)=C1O |  | > 100 µM |  | 48.3 µM |  | > 100 µM |  | 83.3 µM |  | 33.8 µM |  | > 100 µM |  | > 100 µM |  | > 100 µM
12 | CC[C@@H](C)/C=C(C)/C=C/C(=O)c1c(O)c(-c2ccc(O)cc2)cn(O)c1=O | 0.399 µM | 3.74 µM | 0.27 µM | 13.5 µM | 0.288 µM | 7.64 µM | 0.504 µM | 18 µM | 0.266 µM | 0.966 µM | 2.71 µM | 20.8 µM | 0.55 µM | 14 µM | 0.274 µM | 4.88 µM
13 | Nc1nc(/C=C\c2ccccc2)nc(N2CCN(c3ccccc3)CC2)n1 | 28.2 µM | 84.9 µM | 25.4 µM | 66.3 µM | 19 µM | 40.6 µM | 25.9 µM | > 100 µM | 26 µM | 91.6 µM | 58.7 µM | > 100 µM | 36.3 µM | > 100 µM | 27.9 µM | 94.5 µM
14 | COc1cc(/C=N/N=C(\N)NO)c(Cl)cc1O |  | > 100 µM |  |  |  | > 100 µM |  | > 100 µM |  | > 100 µM |  | > 100 µM |  | > 100 µM |  | > 100 µM
15 | Cc1cc(C)c(-c2c(N)cc(Br)cc2Br)c(N)c1 | 4.85 µM | 19.1 µM |  |  | 5.21 µM | 18 µM | 5.19 µM | 19.6 µM | 4.3 µM | 17.2 µM | 11.6 µM | 25.6 µM | 3.93 µM | 16 µM | 11.8 µM | 26.5 µM
16 | COC(=O)c1cc2c3ccccc3n3c2c(n1)-c1[nH]c2ccccc2c(=O)c1C3 | 66.3 µM | > 100 µM | > 100 µM | > 100 µM | > 100 µM | > 100 µM |  |  | 43.3 µM | > 100 µM | > 100 µM | > 100 µM | > 100 µM | > 100 µM |  | 
